The values that follow are results of earlier work, collected in PMC5931107, “Clinical pharmacodynamic/exposure characterisation of the multikinase inhibitor ilorasertib (ABT-348) in a phase 1 dose-escalation trial” (British Journal of Cancer, 2018).

Common to all, as to set-up: method as in PMID 22935731
Data set [1] has as its system Aurora C. Particulars: Aurora C autophosphorylation, nocodazole-arrested HeLa cells; read-out: Cellular PD marker IC50 (95% confidence limits); cited from earlier work.
The test system of data set [2] is VEGFR3. Particulars: read-out: Cellular PD marker IC50 (95% confidence limits); cited from earlier work.
Data set [3] relates to PDGFR-α. Particulars: 1 mM ATP; read-out: Biochemical IC50 (95% confidence limits); cited from earlier work.
Data set [4] has as its system PDGFR-β. Particulars: 1 mM ATP; read-out: Biochemical IC50 (95% confidence limits); cited from earlier work.

Consider `Nc1ncc(-c2cnn(CCO)c2)c2scc(-c3ccc(NC(=O)Nc4cccc(F)c4)cc3)c12` [ilorasertib, Ilorasertib], for which the IC50 in data set [1] was 13 nM; in data set [2], 2 nM; in data set [3], 11 nM; in data set [4], 13 nM.
